Test results: ChEMBL document CHEMBL1275550, “In vitro activity of doripenem, a carbapenem for the treatment of challenging infections caused by gram-negative bacteria, against recent clinical isolates from the United States” (2008)
Converted amounts (≈) assume the structure as drawn.

Legend:
[1] = system: Enterobacteriaceae; test: Antimicrobial activity against ceftazidime-susceptible Enterobacteriaceae assessed as resistant isolate by broth microdilution method; type: functional
[2] = system: Enterobacteriaceae; test: Antimicrobial activity against ceftazidime-susceptible Enterobacteriaceae assessed as intermediate isolate by broth microdilution method; type: functional
[3] = system: Pseudomonas aeruginosa; test: Antimicrobial activity against Pseudomonas aeruginosa isolated from non-ICU patient assessed as resistant isolate by broth microdilution method
[4] = system: Acinetobacter; test: Antimicrobial activity against imipenem susceptible Acinetobacter by broth microdilution method; type: functional
[5] = system: Proteus mirabilis; test: Antimicrobial activity against ESBL producing Proteus mirabilis assessed as intermediate isolate by broth microdilution method; type: functional
[6] = system: Pseudomonas aeruginosa; test: Antimicrobial activity against Pseudomonas aeruginosa isolated from ICU patient assessed as intermediate isolate by broth microdilution method
[7] = system: Escherichia coli; test: Antimicrobial activity against ESBL producing Escherichia coli assessed as intermediate isolate by broth microdilution method; type: functional
[8] = system: Serratia marcescens; test: Antimicrobial activity against Ceftazidime non-susceptible Serratia marcescens assessed as intermediate isolate by broth microdilution method; type: functional
[9] = system: Citrobacter; test: Antimicrobial activity against Citrobacter with nonderepressed AmpC beta-lactamsae assessed as susceptible isolate by broth microdilution method; type: functional
[10] = system: Enterobacter cloacae; test: Antimicrobial activity against Enterobacter cloacae with nonderepressed AmpC beta-lactamsae assessed as intermediate isolate by broth microdilution method; type: functional
[11] = system: Enterobacter cloacae; test: Antimicrobial activity against Enterobacter cloacae with derepressed AmpC beta-lactamsae assessed as susceptible isolate by broth microdilution method; type: functional
[12] = system: Enterobacteriaceae; test: Antimicrobial activity against Ceftazidime non-susceptible Enterobacteriaceae assessed as susceptible isolate by broth microdilution method; type: functional
[13] = system: Pseudomonas aeruginosa; test: Antimicrobial activity against imipenem non-susceptible Pseudomonas aeruginosa by broth microdilution method; type: functional
[14] = system: Escherichia coli; test: Antimicrobial activity against ESBL producing Escherichia coli by broth microdilution method; type: functional
[15] = system: Enterobacter cloacae; test: Antimicrobial activity against Enterobacter cloacae with derepressed AmpC beta-lactamsae by broth microdilution method; type: functional
[16] = system: Pseudomonas aeruginosa; test: Antimicrobial activity against Ceftazidime non-susceptible Pseudomonas aeruginosa by broth microdilution method; type: functional
[17] = system: Klebsiella pneumoniae; test: Antimicrobial activity against ESBL producing Klebsiella pneumoniae assessed as susceptible isolate by broth microdilution method; type: functional
[18] = system: Enterobacter cloacae; test: Antimicrobial activity against Enterobacter cloacae with nonderepressed AmpC beta-lactamsae assessed as susceptible isolate by broth microdilution method; type: functional
[19] = system: Enterobacter cloacae; test: Antimicrobial activity against Enterobacter cloacae with derepressed AmpC beta-lactamsae assessed as intermediate isolate by broth microdilution method; type: functional
[20] = system: Enterobacteriaceae; test: Antimicrobial activity against ceftazidime-susceptible Enterobacteriaceae by broth microdilution method; type: functional
[21] = system: Pseudomonas aeruginosa; test: Antimicrobial activity against Pseudomonas aeruginosa isolated from non-ICU patient by broth microdilution method
[22] = system: Escherichia coli; test: Antimicrobial activity against Non-ESBL Escherichia coli assessed as intermediate isolate by broth microdilution method; type: functional
[23] = system: Pseudomonas aeruginosa; test: Antimicrobial activity against Pseudomonas aeruginosa isolated from ICU patient assessed as resistant isolate by broth microdilution method
[24] = system: Proteus mirabilis; test: Antimicrobial activity against Non-ESBL Proteus mirabilis assessed as intermediate isolate by broth microdilution method; type: functional
[25] = system: Proteus mirabilis; test: Antimicrobial activity against Non-ESBL Proteus mirabilis assessed as susceptible isolate by broth microdilution method; type: functional
[26] = system: Pseudomonas aeruginosa; test: Antimicrobial activity against Pseudomonas aeruginosa isolated from ICU patient by broth microdilution method; type: functional
[27] = system: Acinetobacter; test: Antimicrobial activity against imipenem non-susceptible Acinetobacter by broth microdilution method; type: functional
[28] = system: Acinetobacter; test: Antimicrobial activity against imipenem non-susceptible Acinetobacter assessed as intermediate isolate by broth microdilution method; type: functional
[29] = system: Pseudomonas aeruginosa; test: Antimicrobial activity against Ceftazidime susceptible Pseudomonas aeruginosa assessed as susceptible isolate by broth microdilution method; type: functional
[30] = system: Pseudomonas aeruginosa; test: Antimicrobial activity against Ceftazidime non-susceptible Pseudomonas aeruginosa assessed as susceptible isolate by broth microdilution method; type: functional
[31] = system: Acinetobacter; test: Antimicrobial activity against imipenem non-susceptible Acinetobacter assessed as resistant isolate by broth microdilution method; type: functional
[32] = system: Pseudomonas aeruginosa; test: Antimicrobial activity against Ceftazidime non-susceptible Pseudomonas aeruginosa assessed as intermediate isolate by broth microdilution method; type: functional
[33] = system: Pseudomonas aeruginosa; test: Antimicrobial activity against Pseudomonas aeruginosa isolated from ICU patient assessed as susceptible isolate by broth microdilution method
[34] = system: Klebsiella pneumoniae; test: Antimicrobial activity against ESBL producing Klebsiella pneumoniae assessed as intermediate isolate by broth microdilution method; type: functional
[35] = system: Pseudomonas aeruginosa; test: Antimicrobial activity against Pseudomonas aeruginosa isolated from non-ICU patient by broth microdilution method; type: functional
[36] = system: Citrobacter; test: Antimicrobial activity against Citrobacter with derepressed AmpC beta-lactamsae assessed as susceptible isolate by broth microdilution method; type: functional
[37] = system: Proteus mirabilis; test: Antimicrobial activity against ESBL producing Proteus mirabilis by broth microdilution method; type: functional
[38] = system: Pseudomonas aeruginosa; test: Antimicrobial activity against imipenem non-susceptible Pseudomonas aeruginosa assessed as susceptible isolate by broth microdilution method; type: functional
[39] = system: Pseudomonas aeruginosa; test: Antimicrobial activity against imipenem susceptible Pseudomonas aeruginosa assessed as susceptible isolate by broth microdilution method; type: functional
[40] = system: Enterobacter cloacae; test: Antimicrobial activity against Enterobacter cloacae assessed as susceptible isolate by broth microdilution method; type: functional
[41] = system: Streptococcus pneumoniae; test: Antimicrobial activity against penicillin-susceptible Streptococcus pneumoniae by broth microdilution method; type: functional; settings: Streptococcus pneumoniae
[42] = system: Citrobacter; test: Antimicrobial activity against Citrobacter assessed as susceptible isolate by broth microdilution method; type: functional
[43] = system: Citrobacter; test: Antimicrobial activity against Citrobacter by broth microdilution method; type: functional
[44] = system: Proteus mirabilis; test: Antimicrobial activity against Proteus mirabilis by broth microdilution method; type: functional
[45] = system: Enterobacteriaceae; test: Antimicrobial activity against Enterobacteriaceae assessed as susceptible isolate by broth microdilution method; type: functional
[46] = system: Klebsiella pneumoniae; test: Antimicrobial activity against Klebsiella pneumoniae by broth microdilution method; type: functional
[47] = system: Serratia marcescens; test: Antimicrobial activity against Serratia marcescens by broth microdilution method; type: functional
[48] = system: Enterobacter cloacae; test: Antimicrobial activity against Enterobacter cloacae by broth microdilution method; type: functional
[49] = system: Staphylococcus aureus; test: Antimicrobial activity against methicillin-susceptible Staphylococcus aureus by broth microdilution method; type: functional; settings: Staphylococcus aureus
[50] = system: Acinetobacter; test: Antimicrobial activity against Acinetobacter by broth microdilution method; type: functional
[51] = system: Staphylococcus; test: Antimicrobial activity against methicillin-susceptible coagulase-negative Staphylococcus by broth microdilution method; type: functional; settings: Staphylococcus
[52] = system: Enterobacteriaceae; test: Antimicrobial activity against Enterobacteriaceae by broth microdilution method; type: functional

CC(C)(O/N=C(\C(=O)N[C@@H]1C(=O)N2C(C(=O)[O-])=C(C[n+]3ccccc3)CS[C@H]12)c1csc(N)n1)C(=O)O [CEFTAZIDIME]
Activity [1]: 0% | Activity [2]: 0% | Activity [3]: 10.4% | MIC50 [4]: 4 µg/mL (≈ 7.32 µM) | MIC90 [4]: > 32 µg/mL | Activity [5]: 50% | Activity [6]: 5.8% | Activity [7]: 10% | Activity [8]: 0% | Activity [9]: 98.3% | Activity [10]: 0.7% | Activity [11]: 1% | Activity [12]: 0% | MIC50 [13]: 4 µg/mL (≈ 7.32 µM) | MIC90 [13]: > 32 µg/mL | MIC50 [14]: 32 µg/mL (≈ 58.5 µM) | MIC90 [14]: > 32 µg/mL | MIC50 [15]: > 32 µg/mL | MIC90 [15]: > 32 µg/mL | MIC50 [16]: 32 µg/mL (≈ 58.5 µM) | MIC90 [16]: > 32 µg/mL | Activity [17]: 4.5% | Activity [18]: 93.6% | Activity [19]: 1.9% | MIC50 [20]: 0.12 µg/mL (≈ 0.22 µM) | MIC90 [20]: 0.5 µg/mL (≈ 0.915 µM) | Activity [21]: 87.3% | Activity [22]: 0.5% | Activity [23]: 14.4% | Activity [24]: 0.2% | Activity [25]: 99.5% | MIC50 [26]: 2 µg/mL (≈ 3.66 µM) | MIC90 [26]: 32 µg/mL (≈ 58.5 µM) | MIC50 [27]: > 32 µg/mL | MIC90 [27]: > 32 µg/mL | Activity [28]: 0% | Activity [29]: 100% | Activity [30]: 0% | Activity [31]: 84.3% | Activity [32]: 23.6% | Activity [33]: 79.9% | Activity [34]: 0% | MIC50 [35]: 2 µg/mL (≈ 3.66 µM) | MIC90 [35]: 32 µg/mL (≈ 58.5 µM) | Activity [36]: 0% | MIC [37]: 8 µg/mL (≈ 14.6 µM) | Activity [38]: 76.3% | Activity [39]: 90.9%

C[C@@H](O)[C@H]1C(=O)N2C(C(=O)O)=C(S[C@@H]3CN[C@H](CNS(N)(=O)=O)C3)[C@H](C)[C@H]12 [DORIPENEM]
Activity [40]: 99.2% | MIC50 [41]: ≤ 0.015 µg/mL | MIC90 ([41]; read-out: MIC90): ≤ 0.015 µg/mL | MIC50 [4]: 0.25 µg/mL (≈ 0.595 µM) | MIC90 [4]: 2 µg/mL (≈ 4.76 µM) | Activity [42]: 99.8% | MIC50 [43]: 0.03 µg/mL (≈ 0.0713 µM) | MIC90 [43]: 0.06 µg/mL (≈ 0.143 µM) | Activity [9]: 99.8% | Activity [11]: 99% | Activity [12]: 96.7% | MIC50 [13]: 2 µg/mL (≈ 4.76 µM) | MIC90 [13]: 16 µg/mL (≈ 38 µM) | MIC50 [14]: 0.03 µg/mL (≈ 0.0713 µM) | MIC90 [14]: 0.06 µg/mL (≈ 0.143 µM) | MIC50 [15]: 0.12 µg/mL (≈ 0.285 µM) | MIC90 [15]: 0.25 µg/mL (≈ 0.595 µM) | MIC50 [16]: 1 µg/mL (≈ 2.38 µM) | MIC90 [16]: 16 µg/mL (≈ 38 µM) | Activity [17]: 95.5% | Activity [18]: 99.3% | MIC50 [44]: 0.12 µg/mL (≈ 0.285 µM) | MIC90 [44]: 0.5 µg/mL (≈ 1.19 µM) | MIC50 [20]: 0.03 µg/mL (≈ 0.0713 µM) | MIC90 [20]: 0.12 µg/mL (≈ 0.285 µM) | Activity [21]: 87.9% | Activity [45]: 99.5% | Activity [25]: 98.9% | MIC50 [26]: 0.5 µg/mL (≈ 1.19 µM) | MIC90 [26]: 8 µg/mL (≈ 19 µM) | MIC50 [27]: 32 µg/mL (≈ 76.1 µM) | MIC90 [27]: > 32 µg/mL | MIC50 [46]: 0.03 µg/mL (≈ 0.0713 µM) | MIC90 [46]: 0.06 µg/mL (≈ 0.143 µM) | MIC50 [47]: 0.12 µg/mL (≈ 0.285 µM) | MIC90 [47]: 0.25 µg/mL (≈ 0.595 µM) | Activity [29]: 92.3% | Activity [30]: 60.9% | MIC50 [48]: 0.03 µg/mL (≈ 0.0713 µM) | MIC90 [48]: 0.12 µg/mL (≈ 0.285 µM) | Activity [33]: 78.4% | MIC50 ([49]; read-out: MIC50): 0.03 µg/mL (≈ 0.0713 µM) | MIC90 ([49]; read-out: MIC90): 0.06 µg/mL (≈ 0.143 µM) | MIC50 [50]: 0.5 µg/mL (≈ 1.19 µM) | MIC90 [50]: 32 µg/mL (≈ 76.1 µM) | MIC50 ([51]; read-out: MIC50): 0.03 µg/mL (≈ 0.0713 µM) | MIC90 ([51]; read-out: MIC90): 0.06 µg/mL (≈ 0.143 µM) | MIC50 [35]: 0.25 µg/mL (≈ 0.595 µM) | MIC90 [35]: 4 µg/mL (≈ 9.51 µM) | Activity [36]: 100% | MIC [37]: 0.06 µg/mL (≈ 0.143 µM) | MIC50 [52]: 0.03 µg/mL (≈ 0.0713 µM) | MIC90 [52]: 0.12 µg/mL (≈ 0.285 µM) | Activity [38]: 55.6% | Activity [39]: 98.5%
